Activity calls are given as the source filed them.
Key:
[1] = target: T1, Bcl-2-like protein 10 (Homo sapiens, UniProt Q9HD36); test: displacers of TR3 peptide from Bcl-B, primary screen, selectivity assay for Bfl-1 inhibitor project, biochemical, fluorescence polarization, FITC-TR3 peptide (AID 748);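 also: fluorescence polarization from a fluorescein-labelled TR3 peptide binding purified Bcl-B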
T1 sequence (Q9HD36 whole entry): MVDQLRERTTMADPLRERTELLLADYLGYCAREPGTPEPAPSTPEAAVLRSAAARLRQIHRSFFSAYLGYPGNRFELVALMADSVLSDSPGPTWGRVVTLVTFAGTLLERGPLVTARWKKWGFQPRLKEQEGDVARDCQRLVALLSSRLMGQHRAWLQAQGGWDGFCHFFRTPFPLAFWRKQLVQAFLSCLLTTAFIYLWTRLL

[2] = cytotoxicity in HEK-293T cells, dose response, cytotoxicity control for BCR NF-kB inhibitor project, luminescence, B-cell screen hits (AID 489021); format: functional, cell-based;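 also: HEK-293T cells carrying an NF-kB luciferase reporter; cells exposed to compound for about 14 hours before viability readout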
[3] = Luminescence Cell-Based Dose Retest to Confirm Inhibitors of Cancer Stem Cells. [Related pubchem assays (depositor defined):AID2717, AID2721]; format: functional; settings: Homo sapiens
[4] = target: T2, Protein skinhead-1 (Caenorhabditis elegans, UniProt P34707); format: functional
T2 sequence (P34707 whole entry): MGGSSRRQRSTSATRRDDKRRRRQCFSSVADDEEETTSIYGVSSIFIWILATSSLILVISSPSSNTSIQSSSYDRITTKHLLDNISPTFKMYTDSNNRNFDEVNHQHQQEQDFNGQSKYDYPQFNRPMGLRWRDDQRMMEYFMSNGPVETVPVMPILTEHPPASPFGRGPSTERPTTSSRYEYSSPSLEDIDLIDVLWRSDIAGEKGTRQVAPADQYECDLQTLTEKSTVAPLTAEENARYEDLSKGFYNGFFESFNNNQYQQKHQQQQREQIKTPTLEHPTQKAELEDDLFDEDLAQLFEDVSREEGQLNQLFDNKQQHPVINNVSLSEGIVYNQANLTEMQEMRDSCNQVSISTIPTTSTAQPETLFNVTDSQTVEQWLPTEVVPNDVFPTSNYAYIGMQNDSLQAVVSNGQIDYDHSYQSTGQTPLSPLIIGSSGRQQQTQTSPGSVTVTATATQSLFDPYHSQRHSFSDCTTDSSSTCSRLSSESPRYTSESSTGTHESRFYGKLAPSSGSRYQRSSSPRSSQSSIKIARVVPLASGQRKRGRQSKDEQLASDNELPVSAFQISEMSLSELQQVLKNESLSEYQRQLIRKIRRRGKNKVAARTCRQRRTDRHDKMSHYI

[5] = target: Peroxisome proliferator-activated receptor gamma/Nuclear receptor coactivator 1 (Homo sapiens, UniProt P37231); format: functional;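 also: agonist potency as compounds enhance coactivator SRC-1 recruitment to PPARgamma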
[6] = target: Peroxisome proliferator-activated receptor gamma/Nuclear receptor coactivator 3 (Homo sapiens, UniProt P37231); format: functional;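 also: agonist potency for raising coactivator recruitment to the receptor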
[7] = target: Peroxisome proliferator-activated receptor gamma/Nuclear receptor coactivator 2 (Homo sapiens, UniProt P37231); format: functional;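 also: agonist potency for raising coactivator recruitment to the receptor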
[8] = target: T3, Corticotropin-releasing factor receptor 2/Corticotropin-releasing factor-binding protein (Homo sapiens, UniProt P24387+Q13324); test: Dose Response confirmation of uHTS hits for small molecule antagonists of the CRF-binding protein and CRF-R2 receptor complex.; format: functional; settings: read-out: IC50_Mean
T3 sequence (Q13324 whole entry): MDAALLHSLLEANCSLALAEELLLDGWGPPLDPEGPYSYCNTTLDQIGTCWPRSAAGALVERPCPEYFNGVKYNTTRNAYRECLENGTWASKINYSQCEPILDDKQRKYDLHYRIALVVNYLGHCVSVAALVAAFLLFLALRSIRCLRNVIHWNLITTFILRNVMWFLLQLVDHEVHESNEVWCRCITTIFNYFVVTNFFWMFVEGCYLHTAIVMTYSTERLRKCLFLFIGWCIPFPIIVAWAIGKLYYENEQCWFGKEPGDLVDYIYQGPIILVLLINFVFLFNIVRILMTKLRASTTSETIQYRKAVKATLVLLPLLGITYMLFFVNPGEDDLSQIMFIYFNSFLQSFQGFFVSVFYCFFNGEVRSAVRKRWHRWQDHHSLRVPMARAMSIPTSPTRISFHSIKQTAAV
T3 sequence (P24387 whole entry): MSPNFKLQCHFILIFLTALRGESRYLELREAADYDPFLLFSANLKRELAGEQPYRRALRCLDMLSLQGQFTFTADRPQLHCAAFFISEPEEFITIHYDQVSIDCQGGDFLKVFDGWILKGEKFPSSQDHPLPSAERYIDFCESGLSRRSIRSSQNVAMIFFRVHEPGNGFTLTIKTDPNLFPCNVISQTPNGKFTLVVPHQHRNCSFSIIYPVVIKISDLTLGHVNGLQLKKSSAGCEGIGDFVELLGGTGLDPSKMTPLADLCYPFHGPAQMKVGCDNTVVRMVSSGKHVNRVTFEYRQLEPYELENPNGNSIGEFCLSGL

[9] = target: T3, Corticotropin-releasing factor receptor 2/Corticotropin-releasing factor-binding protein; test: activators of CRF receptor 2 with binding protein – uHTS hits, confirmation (AID 602473); format: functional; settings: read-out: EC50_Mean
[10] = target: NS3 (Hepatitis C virus, UniProt A3EZJ3); test: PubChem AID 2173; parameters: species or system Hepacivirus hominis
[11] = Vero E6 cell cytotoxicity, dose response, cytotoxicity control for non-replicating M. tuberculosis project, secondary assay (AID 492998); format: functional, VeroE6; settings: Vero C1008
[12] = target: Voltage-dependent T-type calcium channel subunit alpha-1H (Homo sapiens, UniProt O95180); format: functional;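 also: channel activity triggered by adding a high calcium stimulation buffer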
[13] = cells; format: functional
[14] = THP-1 cell cytotoxicity, dose response, cytotoxicity control for non-replicating M. tuberculosis project (AID 489025); format: functional
[15] = HepG2 cell cytotoxicity, dose response, cytotoxicity control for non-replicating M. tuberculosis project (AID 489018); format: functional; settings: Mycobacterium tuberculosis
[16] = target: G-protein coupled receptor 55 (Homo sapiens, UniProt Q9Y2T6); test: GPR55 agonists via beta-arrestin recruitment, primary screen, imaging, U2OS cells, beta-arrestin-GFP redistribution (AID 1961); format: functional
[17] = HEp-2 cell cytotoxicity, dose response, cytotoxicity control for RSV inhibitor project, HTS (AID 2410); format: functional; settings: human respiratory syncytial virus
[18] = cells
[19] = tested on: HEK293; test: inhibitors of LMP1-driven NF-kB reporter, dose response, cell-based, HEK293, luciferase, cherry-pick (AID 588343); format: functional; settings: Homo sapiens
[20] = inhibitors of SNCA 5'UTR-driven reporter translation, confirmation, H4 neuroglioma cells, luminescence (AID 1988); format: functional, cell-based
[21] = inhibitors of firefly luciferase expression or activity, dose response, H4 neuroglioma cells, luminescence (AID 1990); format: functional, cell-based
[22] = Luminescence Cell-Based Dose Response HTS to Identify Inhibitors of 5'UTR Stem-Loop Driven Prion Protein mRNA Translation in H4 Neuroglioblastoma Cells. [Related pubchem assays: 1827 (Project Summary), 1813 (Primary HTS)]; format: functional

Chain of Peroxisome proliferator-activated receptor gamma/Nuclear receptor coactivator 1 (P37231 whole entry): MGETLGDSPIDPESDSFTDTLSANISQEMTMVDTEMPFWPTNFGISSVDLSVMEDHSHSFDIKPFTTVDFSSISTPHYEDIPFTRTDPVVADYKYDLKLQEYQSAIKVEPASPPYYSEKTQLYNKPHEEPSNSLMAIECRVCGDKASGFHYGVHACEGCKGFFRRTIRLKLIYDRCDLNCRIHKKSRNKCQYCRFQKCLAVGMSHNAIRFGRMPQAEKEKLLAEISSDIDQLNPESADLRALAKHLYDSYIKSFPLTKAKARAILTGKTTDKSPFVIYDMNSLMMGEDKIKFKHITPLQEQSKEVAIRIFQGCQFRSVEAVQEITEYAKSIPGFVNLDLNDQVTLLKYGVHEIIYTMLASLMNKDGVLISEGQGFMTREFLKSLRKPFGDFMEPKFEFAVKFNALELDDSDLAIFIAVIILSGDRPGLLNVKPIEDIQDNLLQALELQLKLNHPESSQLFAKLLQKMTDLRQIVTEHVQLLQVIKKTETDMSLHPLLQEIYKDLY
Chain of Peroxisome proliferator-activated receptor gamma/Nuclear receptor coactivator 1 (Q15788 whole entry, further chain): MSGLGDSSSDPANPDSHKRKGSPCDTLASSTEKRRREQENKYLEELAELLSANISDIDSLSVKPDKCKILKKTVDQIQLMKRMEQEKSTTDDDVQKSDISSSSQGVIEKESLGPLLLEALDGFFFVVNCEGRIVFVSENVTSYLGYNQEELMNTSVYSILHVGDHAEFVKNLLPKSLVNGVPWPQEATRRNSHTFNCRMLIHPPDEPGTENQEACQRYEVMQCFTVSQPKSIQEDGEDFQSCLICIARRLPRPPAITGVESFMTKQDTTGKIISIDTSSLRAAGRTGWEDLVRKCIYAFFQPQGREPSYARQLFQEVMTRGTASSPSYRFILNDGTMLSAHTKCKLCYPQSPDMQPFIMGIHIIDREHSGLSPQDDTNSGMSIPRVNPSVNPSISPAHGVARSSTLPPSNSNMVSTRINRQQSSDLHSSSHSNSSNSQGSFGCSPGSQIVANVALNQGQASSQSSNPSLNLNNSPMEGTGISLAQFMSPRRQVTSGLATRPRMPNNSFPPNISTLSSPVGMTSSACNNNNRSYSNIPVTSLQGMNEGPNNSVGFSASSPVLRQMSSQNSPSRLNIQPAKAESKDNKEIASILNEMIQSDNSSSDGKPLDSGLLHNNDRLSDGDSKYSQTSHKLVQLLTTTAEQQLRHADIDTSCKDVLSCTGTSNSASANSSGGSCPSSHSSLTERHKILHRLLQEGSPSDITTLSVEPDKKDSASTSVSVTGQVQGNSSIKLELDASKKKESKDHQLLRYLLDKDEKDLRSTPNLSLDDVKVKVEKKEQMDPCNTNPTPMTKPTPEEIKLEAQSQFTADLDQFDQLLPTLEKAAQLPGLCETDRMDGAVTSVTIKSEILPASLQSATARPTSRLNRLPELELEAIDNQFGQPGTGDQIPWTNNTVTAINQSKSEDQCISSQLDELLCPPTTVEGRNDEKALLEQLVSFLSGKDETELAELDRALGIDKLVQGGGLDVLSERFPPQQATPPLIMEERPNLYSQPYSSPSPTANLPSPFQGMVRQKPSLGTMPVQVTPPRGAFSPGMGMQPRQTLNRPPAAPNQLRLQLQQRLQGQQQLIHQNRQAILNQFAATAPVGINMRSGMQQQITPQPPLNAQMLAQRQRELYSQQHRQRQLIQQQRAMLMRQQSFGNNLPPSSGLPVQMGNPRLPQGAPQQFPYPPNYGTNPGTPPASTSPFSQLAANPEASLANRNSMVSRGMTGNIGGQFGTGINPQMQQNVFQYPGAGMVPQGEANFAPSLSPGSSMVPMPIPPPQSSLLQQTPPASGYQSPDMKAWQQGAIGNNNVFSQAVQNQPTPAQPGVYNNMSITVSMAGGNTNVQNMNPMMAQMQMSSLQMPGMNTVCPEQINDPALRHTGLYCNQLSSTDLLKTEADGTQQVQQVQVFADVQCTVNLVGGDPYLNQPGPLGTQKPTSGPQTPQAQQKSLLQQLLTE
Chain of Peroxisome proliferator-activated receptor gamma/Nuclear receptor coactivator 3 (P37231 whole entry): as the sequence (P37231 whole entry) above
Chain of Peroxisome proliferator-activated receptor gamma/Nuclear receptor coactivator 3 (Q9Y6Q9 whole entry, further chain): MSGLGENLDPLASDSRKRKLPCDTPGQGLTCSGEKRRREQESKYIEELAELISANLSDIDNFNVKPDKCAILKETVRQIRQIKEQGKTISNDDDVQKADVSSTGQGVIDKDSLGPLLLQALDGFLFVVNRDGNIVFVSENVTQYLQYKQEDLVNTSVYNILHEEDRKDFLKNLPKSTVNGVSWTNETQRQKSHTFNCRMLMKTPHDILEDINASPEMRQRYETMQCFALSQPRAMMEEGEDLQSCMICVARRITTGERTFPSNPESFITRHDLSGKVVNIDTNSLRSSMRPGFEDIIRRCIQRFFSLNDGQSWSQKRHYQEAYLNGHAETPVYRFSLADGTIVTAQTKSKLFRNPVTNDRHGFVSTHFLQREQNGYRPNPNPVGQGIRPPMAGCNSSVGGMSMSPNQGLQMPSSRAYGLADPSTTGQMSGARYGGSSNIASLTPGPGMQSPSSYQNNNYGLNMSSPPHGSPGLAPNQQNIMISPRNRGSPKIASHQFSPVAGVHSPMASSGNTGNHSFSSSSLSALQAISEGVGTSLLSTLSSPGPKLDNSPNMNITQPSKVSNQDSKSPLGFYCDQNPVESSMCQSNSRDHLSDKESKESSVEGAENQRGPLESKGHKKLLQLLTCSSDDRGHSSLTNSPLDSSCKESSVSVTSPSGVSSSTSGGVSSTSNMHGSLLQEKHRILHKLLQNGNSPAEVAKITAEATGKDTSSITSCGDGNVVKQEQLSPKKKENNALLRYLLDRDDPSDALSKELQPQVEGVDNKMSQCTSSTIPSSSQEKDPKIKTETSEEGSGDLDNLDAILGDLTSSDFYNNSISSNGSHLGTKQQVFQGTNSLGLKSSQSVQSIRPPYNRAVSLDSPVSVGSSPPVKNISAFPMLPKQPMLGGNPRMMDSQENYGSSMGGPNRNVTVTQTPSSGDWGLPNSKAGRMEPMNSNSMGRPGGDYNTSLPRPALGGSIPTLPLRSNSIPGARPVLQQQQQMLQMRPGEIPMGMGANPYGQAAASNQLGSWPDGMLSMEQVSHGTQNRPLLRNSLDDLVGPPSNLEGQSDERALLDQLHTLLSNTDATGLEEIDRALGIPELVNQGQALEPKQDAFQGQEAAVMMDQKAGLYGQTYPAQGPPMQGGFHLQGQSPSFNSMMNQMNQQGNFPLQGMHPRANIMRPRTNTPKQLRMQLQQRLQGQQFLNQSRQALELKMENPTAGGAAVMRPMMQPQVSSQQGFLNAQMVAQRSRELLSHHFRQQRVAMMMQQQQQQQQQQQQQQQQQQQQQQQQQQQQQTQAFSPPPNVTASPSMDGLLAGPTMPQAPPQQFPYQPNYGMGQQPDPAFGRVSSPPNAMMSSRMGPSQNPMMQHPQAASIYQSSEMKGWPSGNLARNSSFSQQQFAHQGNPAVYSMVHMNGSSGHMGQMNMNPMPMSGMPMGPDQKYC
Chain of G-protein coupled receptor 55 (Q9Y2T6 whole entry): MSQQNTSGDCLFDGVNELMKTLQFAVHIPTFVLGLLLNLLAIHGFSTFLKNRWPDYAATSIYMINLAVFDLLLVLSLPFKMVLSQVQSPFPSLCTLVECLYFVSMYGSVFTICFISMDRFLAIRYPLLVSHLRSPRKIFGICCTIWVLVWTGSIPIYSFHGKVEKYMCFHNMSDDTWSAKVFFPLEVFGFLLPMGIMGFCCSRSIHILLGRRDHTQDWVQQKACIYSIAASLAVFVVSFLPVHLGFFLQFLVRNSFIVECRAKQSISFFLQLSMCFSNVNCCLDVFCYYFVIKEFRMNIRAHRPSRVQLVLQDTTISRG
Chain of NS3 (A3EZJ3 whole entry): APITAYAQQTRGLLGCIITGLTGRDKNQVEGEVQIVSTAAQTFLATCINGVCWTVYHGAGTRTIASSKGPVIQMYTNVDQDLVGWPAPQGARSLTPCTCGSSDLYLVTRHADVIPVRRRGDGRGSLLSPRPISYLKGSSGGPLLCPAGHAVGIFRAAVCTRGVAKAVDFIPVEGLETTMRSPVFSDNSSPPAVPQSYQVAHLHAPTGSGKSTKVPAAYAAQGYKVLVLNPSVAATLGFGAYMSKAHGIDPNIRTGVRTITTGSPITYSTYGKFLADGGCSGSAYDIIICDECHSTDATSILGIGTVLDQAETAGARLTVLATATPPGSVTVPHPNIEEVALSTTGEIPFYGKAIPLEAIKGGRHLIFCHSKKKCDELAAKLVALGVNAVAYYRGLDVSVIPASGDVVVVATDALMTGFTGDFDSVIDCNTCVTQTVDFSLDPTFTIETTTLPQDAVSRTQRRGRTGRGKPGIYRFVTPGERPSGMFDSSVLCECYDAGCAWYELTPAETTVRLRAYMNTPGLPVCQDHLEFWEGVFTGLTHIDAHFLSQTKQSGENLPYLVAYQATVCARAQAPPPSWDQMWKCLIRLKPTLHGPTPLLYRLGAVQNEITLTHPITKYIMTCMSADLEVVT

Question: Which IC50 [1] does the source give for O=C(COC(=O)Cc1ccccc1)Nc1ncc(Cl)cc1Cl here?
Answer: 91.5 µM (inactive)

Question: What does the source list for Cc1cc(C)cc(NC(=O)Nc2ccc(NC(=O)c3ccccc3O)cc2)c1?
Answer: IC50 [2]: > 80 µM (inactive); AC50 [3]: 0.167 µM (active)

Question: Which results are given for CSC1=NC(C)(C)CC2(CC(c3ccccc3)Oc3cc(O)ccc32)N1 (configuration not stated)?
Answer: IC50 [4]: > 100 µM (inactive); EC50 [5]: > 79.4 µM (not active); EC50 [6]: > 79.4 µM (not active); EC50 [7]: > 79.4 µM (not active)

Question: Which EC50 [5] does the source give for COc1ccc(NS(=O)(=O)c2c(C)n(C)c(=O)n(C)c2=O)cc1OC here?
Answer: > 79.4 µM (not active)

Question: What about the EC50 [6] of the same molecule?
Answer: > 79.4 µM (not active)

Question: And the IC50 [8]?
Answer: > 47.1 µM (inactive)

Question: What about the EC50 [9] of the same molecule?
Answer: > 53 µM (inactive)

Question: What about the EC50 [7] of the same molecule?
Answer: > 79.4 µM (not active)

Question: Which IC50 [10] does the source give for O=C1/C(=C/C=C/C=C/Nc2ccccc2)SC(=S)N1Cc1ccccc1 here?
Answer: 17.3 µM (not active)

Question: For CCC1CCCCN1S(=O)(=O)c1ccc(C(=O)Nc2nnc(-c3cccs3)o2)cc1 (configuration not stated), which CC50 [11] is on record?
Answer: 2.43 µM (active)

Question: What about the EC50 [12] of the same molecule?
Answer: 1.44 µM (active)

Question: And the IC50 [13]?
Answer: 6.49 µM (active)

Question: And the CC50 [14]?
Answer: 3.49 µM (active)

Question: What about the CC50 [15] of the same molecule?
Answer: 9.09 µM (active)

Question: With Cc1ccc2c(Cl)cc(Cl)c(OCC(=O)Nc3ccc(C)c(S(=O)(=O)N(C)C)c3)c2n1 as the molecule, how does the EC50 [16] read?
Answer: > 32 µM (inactive)

Question: With CCOC(=O)c1ccc(NC(=S)N2CCSC2c2ccc(Br)cc2)cc1 (configuration not stated) as the molecule, how does the CC50 [17] read?
Answer: 14 µM (active)

Question: What about the EC50 [9] of the same molecule?
Answer: 4.38 µM (active)

Question: What about the IC50 [18] of the same molecule?
Answer: 11 µM (active)

Question: Which IC50 [2] does the source give for CCOC(=O)CNC(=O)CSc1nnc(NC(=O)c2ccc(C)cc2)s1 here?
Answer: > 80 µM (inactive)

Question: And the AC50 [19]?
Answer: 1.65 µM (active)

Question: And the EC50 [20]?
Answer: 7.31 µM (active)

Question: What about the EC50 [21] of the same molecule?
Answer: 9.66 µM (active)

Question: What about the EC50 [22] of the same molecule?
Answer: 11 µM (active)
